Test system: participants with SSc-RP
Assay: Scleroderma Health Assessment Questionnaire (SHAQ), Phase 2a study Part A
Format: in vivo, human
Protocol: Part A—double-blind, placebo-controlled, parallel-group, dose selection, will assess the safety and efficacy of two doses of cilnidipine (10 mg and 20 mg), alone and in combination with tadalafil. A total of 36 participants will be randomized to one of six prespecified treatment arms. Refer to FIG. 1 for treatment arms in Part A of the study. Dosing last for 12 (±2) days in which participants will self-administer daily doses of assigned treatment in the morning. Each participant will take one capsule and one tablet to blind the active therapy being received.
The standard, validated, patient reported outcome measures tool for SSc patients, the SHAQ, will be collected at the time points specified in the study schedules (FIG. 2 and FIGS. 3A and 3B) to assess the participant's quality of life. The SHAQ includes a Raynaud's VAS that will also be reported separately.
Results: Patients in the study were administered the Scleroderma Health Assessment Questionnaire (SHAQ) at the time of study entry and during clinic visits following the treatment period. The study is a two-part, parallel arm design, prospective, double-blind, randomized study conducted in Australia (Flinders Medical Center). 27 patients were randomized into the first phase of the study, following which a DSMB meeting was held, which reviewed data on the primary study endpoint and key Raynaud's secondary endpoints. Data on the SHAQ was not available for the DSMB to review. The mITT population, in which any data was available post treatment was 24 patients was the analysis population for this first part of the study. The second part (i.e., part B) of the study will randomize 36 patients in a double blind, randomized, prospective, placebo controlled, crossover study. In the first part (i.e., Part A) of the study for which data is presented, patients were randomized into 6 groups, cilnidipine at two doses (10 and 20 mg) alone and in combination with tadalafil 5 mg, tadalafil 5 mg alone, and placebo. […] The DSMB recommended that the study proceed into its double blind prospective cross overpowered second phase and compare cilnidipine 20 mg alone to placebo.

[1] = cilnidipine 10 mg and/or tadalafil 5 mg arms
[2] = cilnidipine 20 mg arms (alone or + tadalafil 5 mg)

Compound: COCCOC(=O)C1=C(C)NC(C)=C(C(=O)OC/C=C/c2ccccc2)C1c1cccc([N+](=O)[O-])c1 (stereo not shown) [Cilnidipine, cilnidipine]
- SHAQ Visual Analog Scale-Raynaud's, In Clinic Visit (Day 12), Mean (SD) [1]: 1.925 (1.9207)
- SHAQ Visual Analog Scale-Raynaud's, In Clinic Visit (Day 12), Median [1]: 1.700
- SHAQ Visual Analog Scale-Raynaud's, In Clinic Visit (Day 12), Min [1]: 0.00
- SHAQ Visual Analog Scale-Raynaud's, In Clinic Visit (Day 12), Q1 [1]: 0.400
- SHAQ Visual Analog Scale-Raynaud's, In Clinic Visit (Day 12), Q3 [1]: 3.450
- SHAQ Visual Analog Scale-Raynaud's, Percent Change from Baseline, Max [1]: 136.4%
- SHAQ Visual Analog Scale-Raynaud's, Percent Change from Baseline, Mean (SD) [1]: 11.36 (118.770) %
- SHAQ Visual Analog Scale-Raynaud's, Percent Change from Baseline, Median [1]: −2.27%
- SHAQ Visual Analog Scale-Raynaud's, Percent Change from Baseline, Min [1]: −100.0%
- SHAQ Visual Analog Scale-Raynaud's, Percent Change from Baseline, Q1 [1]: −100.00%
- SHAQ alternative disability index, Change from Baseline, Max [1]: 0.38
- SHAQ alternative disability index, Change from Baseline, Mean (SD) [1]: 0.063 (0.2165)
- SHAQ alternative disability index, Change from Baseline, Median [1]: 0.000
- SHAQ alternative disability index, Change from Baseline, Min [1]: −0.13
- SHAQ alternative disability index, Change from Baseline, Q1 [1]: −0.063
- SHAQ alternative disability index, Change from Baseline, Q3 [1]: 0.188
- SHAQ alternative disability index, In Clinic Visit (Day 12), Max [1]: 1.25
- SHAQ alternative disability index, In Clinic Visit (Day 12), Mean (SD) [1]: 0.563 (0.6575)
- SHAQ alternative disability index, In Clinic Visit (Day 12), Median [1]: 0.500
- SHAQ alternative disability index, In Clinic Visit (Day 12), Min [1]: 0.00
- SHAQ alternative disability index, In Clinic Visit (Day 12), Q1 [1]: 0.000
- SHAQ alternative disability index, In Clinic Visit (Day 12), Q3 [1]: 1.125
- SHAQ alternative disability index, Percent Change from Baseline, Max [1]: 42.9%
- SHAQ alternative disability index, Percent Change from Baseline, Mean (SD) [1]: 15.87 (38.161) %
- SHAQ alternative disability index, Percent Change from Baseline, Median [1]: 15.87%
- SHAQ alternative disability index, Percent Change from Baseline, Min [1]: −11.1%
- SHAQ alternative disability index, Percent Change from Baseline, Q1 [1]: −11.11%
- SHAQ alternative disability index, Percent Change from Baseline, Q3 [1]: 42.86%
- SHAQ Finger Ulcers, Change from Baseline, Max [2]: 0.40
- SHAQ Finger Ulcers, Change from Baseline, Mean (SD) [2]: −0.933 (1.9732)
- SHAQ Finger Ulcers, Change from Baseline, Median [2]: 0.000
- SHAQ Finger Ulcers, Change from Baseline, Min [2]: −3.20
- SHAQ Finger Ulcers, Change from Baseline, Q1 [2]: −3.200
- SHAQ Finger Ulcers, Change from Baseline, Q3 [2]: 0.400
- SHAQ Finger Ulcers, In Clinic Visit (Day 12), Max [2]: 1.90
- SHAQ Finger Ulcers, In Clinic Visit (Day 12), Mean (SD) [2]: 0.867 (0.9609)
- SHAQ Finger Ulcers, In Clinic Visit (Day 12), Median [2]: 0.700
- SHAQ Finger Ulcers, In Clinic Visit (Day 12), Min [2]: 0.00
- SHAQ Finger Ulcers, In Clinic Visit (Day 12), Q1 [2]: 0.000
- SHAQ Finger Ulcers, In Clinic Visit (Day 12), Q3 [2]: 1.900
- SHAQ Finger Ulcers, Percent Change from Baseline, Max [2]: 133.3%
- SHAQ Finger Ulcers, Percent Change from Baseline, Mean (SD) [2]: 35.29 (138.648) %
- SHAQ Finger Ulcers, Percent Change from Baseline, Median [2]: 35.29%
- SHAQ Finger Ulcers, Percent Change from Baseline, Min [2]: −62.7%
- SHAQ Finger Ulcers, Percent Change from Baseline, Q1 [2]: −62.75%
- SHAQ Finger Ulcers, Percent Change from Baseline, Q3 [2]: 133.33%
- SHAQ Overall Change in Severity, Change from Baseline, Max [2]: −1.50
- SHAQ Overall Change in Severity, Change from Baseline, Median [2]: −1.600
- SHAQ Overall Change in Severity, Change from Baseline, Min [2]: −1.80
- SHAQ Overall Change in Severity, Change from Baseline, Q1 [2]: −1.800
- SHAQ Overall Change in Severity, Change from Baseline, Q3 [2]: −1.500
- SHAQ Overall Change in Severity, In Clinic Visit (Day 12), Max [2]: 1.40
- SHAQ Overall Change in Severity, In Clinic Visit (Day 12), Mean (SD) [2]: 1.033 (0.4726)
- SHAQ Overall Change in Severity, In Clinic Visit (Day 12), Median [2]: 1.200
- SHAQ Overall Change in Severity, In Clinic Visit (Day 12), Min [2]: 0.50
- SHAQ Overall Change in Severity, In Clinic Visit (Day 12), Q1 [2]: 0.500
- SHAQ Overall Change in Severity, In Clinic Visit (Day 12), Q3 [2]: 1.400
- SHAQ Overall Change in Severity, Percent Change from Baseline, Max [2]: −51.7%
- SHAQ Overall Change in Severity, Percent Change from Baseline, Mean (SD) [2]: −62.64 (12.445) %
- SHAQ Overall Change in Severity, Percent Change from Baseline, Median [2]: −60.00%
- SHAQ Overall Change in Severity, Percent Change from Baseline, Min [2]: −76.2%
- SHAQ Overall Change in Severity, Percent Change from Baseline, Q1 [2]: −76.19%
- SHAQ Overall Change in Severity, Percent Change from Baseline, Q3 [2]: −51.72%
- SHAQ Standard disability index, Change from Baseline, Max [2]: 0.00
- SHAQ Standard disability index, Change from Baseline, Mean (SD) [2]: −0.125 (0.1250)
- SHAQ Standard disability index, Change from Baseline, Median [2]: −0.125
- SHAQ Standard disability index, Change from Baseline, Min [2]: −0.25
- SHAQ Standard disability index, Change from Baseline, Q1 [2]: −0.250
- SHAQ Standard disability index, Change from Baseline, Q3 [2]: 0.000
- SHAQ Standard disability index, In Clinic Visit (Day 12), Max [2]: 0.25
- SHAQ Standard disability index, In Clinic Visit (Day 12), Mean (SD) [2]: 0.125 (0.1250)
- SHAQ Standard disability index, In Clinic Visit (Day 12), Median [2]: 0.125
- SHAQ Standard disability index, In Clinic Visit (Day 12), Min [2]: 0.00
- SHAQ Standard disability index, In Clinic Visit (Day 12), Q1 [2]: 0.000
- SHAQ Standard disability index, In Clinic Visit (Day 12), Q3 [2]: 0.250
- SHAQ Standard disability index, Percent Change from Baseline, Max [2]: −33.3%
- SHAQ Standard disability index, Percent Change from Baseline, Mean (SD) [2]: −50.00 (23.570) %
- SHAQ Standard disability index, Percent Change from Baseline, Median [2]: −50.00%
- SHAQ Standard disability index, Percent Change from Baseline, Min [2]: −66.7%
- SHAQ Standard disability index, Percent Change from Baseline, Q1 [2]: −66.67%
- SHAQ Standard disability index, Percent Change from Baseline, Q3 [2]: −33.33%
- SHAQ Visual Analog Scale-Breathing Problems, Change from Baseline, Max [2]: 0.30
- SHAQ Visual Analog Scale-Breathing Problems, Change from Baseline, Median [2]: −0.800
- SHAQ Visual Analog Scale-Breathing Problems, Change from Baseline, Min [2]: −2.00
- SHAQ Visual Analog Scale-Breathing Problems, Change from Baseline, Q1 [2]: −2.000

— patent publication US20240148709A1, “METHODS OF TREATING EYE PAIN AND EYE DISORDERS” (Aisa Pharma, Inc., priority 2022, published 2024)
